Tested on: P. gingivalis-induced periodontitis
Assay: Ligature + P. gingivalis experimental periodontitis, topical application of Resolvin E1
Assay type: in vivo, New Zealand White rabbits
[1] = rabbit, topical, every other day for 6 weeks, compared with baseline

CC[C@@H](O)/C=C/C=C\C[C@@H](O)/C=C/C=C/C=C\[C@@H](O)CCCC(=O)O [Resolvin E1]
bone loss (rabbit model, topical administration): prevents bone loss
soft tissue condition (mandibles, FIG. 2) (rabbit, topical resolvin E1 7 μg/μL in ethanol every other day for 6 weeks, starting six weeks after ligature and P. gingivalis, vs control group): distinctly healthier than the control group
deposition of bone (bone growth), conclusion (rabbit, topical, every other day for 6 weeks): assisted in deposition of bone
hard tissue crestal distance measurements (FIG. 4 and FIG. 5) (rabbit, topical, every other day for 6 weeks, buccal and lingual, defleshed jaws): same results
soft tissue pocket depth measurements (FIG. 3) (rabbit, topical, every other day for 6 weeks, buccal and lingual, vs vehicle alone): lower
hard-tissue-infrabony pocket depth measurements (FIG. 6) [1]: improvement over baseline
soft tissue pocket depth measurements vs baseline (FIG. 3) [1]: improvement over baseline
tooth mobility (FIG. 7) [1]: improvement over baseline

Reference: patent US9968577B2, “Treatment and prevention of bone loss using resolvins” (Forsyth Dental Infirmary for Children, priority 2005, dated 2018)
